What follows are compounds tested against T1, Human TRPC6 (Homo sapiens, UniProt Q9Y210) (assay: Evaluation of TRPC6 channel inhibitory activity (2), HEK293 cells with stably introduced human TRPC6, OAG stimulation, FLIPR tetra (Compound Nos. 1293 to 1405)). Conditions: HEK293 cells with stably introduced human TRPC6, OAG 50 μM/0.5% DMSO, read-out: Inhibitory activity (pIC50 class) (converted).
T1 construct: expressed in transfected cells
T1 sequence (Q9Y210 1-931): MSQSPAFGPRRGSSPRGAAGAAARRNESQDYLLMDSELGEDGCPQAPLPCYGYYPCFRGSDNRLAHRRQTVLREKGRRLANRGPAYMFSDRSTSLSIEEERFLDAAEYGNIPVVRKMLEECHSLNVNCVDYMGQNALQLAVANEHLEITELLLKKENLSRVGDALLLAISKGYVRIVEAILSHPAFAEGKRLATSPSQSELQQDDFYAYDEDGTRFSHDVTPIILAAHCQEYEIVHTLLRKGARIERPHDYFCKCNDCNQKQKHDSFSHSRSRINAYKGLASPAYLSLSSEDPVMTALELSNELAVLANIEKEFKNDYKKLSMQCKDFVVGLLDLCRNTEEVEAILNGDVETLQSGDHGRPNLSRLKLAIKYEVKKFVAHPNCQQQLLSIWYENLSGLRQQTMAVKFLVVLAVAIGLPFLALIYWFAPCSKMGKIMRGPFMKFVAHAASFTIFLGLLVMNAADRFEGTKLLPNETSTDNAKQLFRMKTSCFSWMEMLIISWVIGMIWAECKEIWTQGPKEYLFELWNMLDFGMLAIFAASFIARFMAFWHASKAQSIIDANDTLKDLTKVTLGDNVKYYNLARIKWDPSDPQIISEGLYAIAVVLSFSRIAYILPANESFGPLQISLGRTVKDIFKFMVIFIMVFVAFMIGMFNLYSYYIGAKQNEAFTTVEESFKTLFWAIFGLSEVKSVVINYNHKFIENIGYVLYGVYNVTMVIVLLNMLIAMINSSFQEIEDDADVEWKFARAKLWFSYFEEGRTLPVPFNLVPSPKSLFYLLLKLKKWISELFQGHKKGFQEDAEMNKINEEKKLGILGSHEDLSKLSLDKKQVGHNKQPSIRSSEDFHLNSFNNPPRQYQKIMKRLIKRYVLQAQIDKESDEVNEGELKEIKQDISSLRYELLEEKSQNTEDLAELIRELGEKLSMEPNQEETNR
Format: cell-based
Method in brief: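 Calcium-dye-loaded HEK293 cells stably expressing human TRPC6 were pretreated with compound for 25 min, then stimulated with 50 μM OAG (0.5% DMSO) in Ca ringer buffer pH 7.2 with 2 mM CaCl2. Background-subtracted FLIPR calcium peaks were normalized to OAG (100%) and buffer (0%); pIC50 came from four-parameter logistic fit, binned as +/++/+++.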

Compound	IC50
Cc1cc(Oc2cc(Cl)cnc2-c2ncc(CCN)cn2)cc(N2CCOCC2)n1 [compound 1385, 2-[2-[5-chloro-3-(2-methyl-6-morpholin-4-ylpyridin-4-yl)oxypyridin-2-yl]pyrimidin-5-yl]ethanamine]	10 to 1000 nM
Cn1nc(C2CCOCC2)cc1Oc1cc(Cl)ccc1-c1ccc([C@H](F)CN)cn1 [compound 1386, (2S)-2-[6-[4-chloro-2-[2-methyl-5-(oxan-4-yl)pyrazol-3-yl]oxyphenyl]pyridin-3-yl]-2-fluoroethanamine]	10 to 1000 nM
Cn1nc(C2CCOCC2)cc1Oc1cc(Cl)ccc1-c1ccc([C@@H](F)CN)cn1 [compound 1387, (2R)-2-[6-[4-chloro-2-[2-methyl-5-(oxan-4-yl)pyrazol-3-yl]oxyphenyl]pyridin-3-yl]-2-fluoroethanamine]	< 10 nM
Cn1nc(C2CCOCC2)cc1Oc1cc(Cl)ccc1-c1ncc([C@H](O)CN)cn1 [compound 1388, (1S)-2-amino-1-[2-[4-chloro-2-[2-methyl-5-(oxan-4-yl)pyrazol-3-yl]oxyphenyl]pyrimidin-5-yl]ethanol]	10 to 1000 nM
Cn1nc(C2CCOCC2)cc1Oc1cc(Cl)ccc1-c1ncc([C@@H](O)CN)cn1 [compound 1389, (1R)-2-amino-1-[2-[4-chloro-2-[2-methyl-5-(oxan-4-yl)pyrazol-3-yl]oxyphenyl]pyrimidin-5-yl]ethanol]	10 to 1000 nM
Cn1nc(C2CCOCC2)cc1Oc1cc(Cl)ccc1-c1ncc(CCN)cn1 [compound 1390, 2-[2-[4-chloro-2-[2-methyl-5-(oxan-4-yl)pyrazol-3-yl]oxyphenyl]pyrimidin-5-yl]ethanamine]	10 to 1000 nM
Cc1cc(Oc2cc(C#N)ccc2-c2ncc3c(n2)CNC3)cc(N2CCOCC2)n1 [compound 1392, 4-(6,7-dihydro-5H-pyrrolo[3,4-d]pyrimidin-2-yl)-3-(2-methyl-6-morpholin-4-ylpyridin-4-yl)oxybenzonitrile]	> 1000 nM
Cn1nc(-c2ccccn2)cc1Oc1cc(C#N)ccc1-c1ncc2c(n1)CNC2 [compound 1393, 4-(6,7-dihydro-5H-pyrrolo[3,4-d]pyrimidin-2-yl)-3-(2-methyl-5-pyridin-2-ylpyrazol-3-yl)oxybenzonitrile]	10 to 1000 nM
Cc1cc(Oc2cc(Cl)ccc2-c2ccc([C@@H](F)CN)cn2)cc(N2CCOCC2)n1 [compound 1394, (2R)-2-[6-[4-chloro-2-(2-methyl-6-morpholin-4-ylpyridin-4-yl)oxyphenyl]pyridin-3-yl]-2-fluoroethanamine]	10 to 1000 nM
Cc1cc(Oc2cc(Cl)ccc2-c2ccc([C@@H](O)CN)cn2)cc(N2CCOCC2)n1 [compound 1395, (1R)-2-amino-1-[6-[4-chloro-2-(2-methyl-6-morpholin-4-ylpyridin-4-yl)oxyphenyl]pyridin-3-yl]ethanol]	< 10 nM

Next, values leading:

IC50	Compound
10 to 1000 nM	Cc1cc(Oc2cc(Cl)ccc2-c2ccc([C@H](O)CN)cn2)cc(N2CCOCC2)n1 [compound 1396, (1S)-2-amino-1-[6-[4-chloro-2-(2-methyl-6-morpholin-4-ylpyridin-4-yl)oxyphenyl]pyridin-3-yl]ethanol]
10 to 1000 nM	Cc1cc(Oc2cc(Cl)cnc2-c2ccc([C@@H](F)CN)cn2)cc(N2CCOCC2)n1 [compound 1397, (2R)-2-[6-[5-chloro-3-(2-methyl-6-morpholin-4-ylpyridin-4 yl)oxypyridin-2-yl]pyridin-3-yl]-2-fluoroethanamine]
< 10 nM	Cc1cc(Oc2cc(Cl)cnc2-c2ccc([C@H](F)CN)cn2)cc(N2CCOCC2)n1 [compound 1398]
> 1000 nM	Cn1nc(C2CCOCC2)cc1Oc1cc(Cl)cnc1-c1ccc(C(F)(F)CN)cn1 [compound 1399, 2-[6-[5-chloro-3-[2-methyl-5-(oxan-4-yl)pyrazol-3-yl]oxypyridin-2-yl]pyridin-3-yl]-2,2-difluoroethanamine]
10 to 1000 nM	Cn1nc(C2CCOCC2)cc1Oc1cc(C#N)ccc1-c1ccc(C(F)(F)CN)cn1 [compound 1400, 4-[5-(2-amino-1,1-difluoroethyl)pyridin-2-yl]-3-[2-methyl-5-(oxan-4-yl)pyrazol-3-yl]oxybenzonitrile]
10 to 1000 nM	Cn1nc(-c2ccccn2)cc1Oc1cc(Cl)ccc1-c1ccc([C@@H](O)CN)cn1 [compound 1401, (1R)-2-amino-1-[6-[4-chloro-2-(2-methyl-5-pyridin-2-ylpyrazol-3-yl)oxyphenyl]pyridin-3-yl]ethanol]
10 to 1000 nM	Cc1nc(Oc2cc(C#N)ccc2-c2ncc([C@H](F)CN)cn2)cc(N2CCOCC2)n1 [compound 1403, 4-[5-[(1S)-2-amino-1-fluoroethyl]pyrimidin-2-yl]-3-(2-methyl-6-morpholin-4-ylpyrimidin-4-yl)oxybenzonitrile]
< 10 nM	Cn1nc(-c2ccccn2)cc1Oc1cc(Cl)cc(F)c1-c1ccc(CN)cn1 [compound 1404, [6-[4-chloro-2-fluoro-6-(2-methyl-5-pyridin-2-ylpyrazol-3-yl)oxyphenyl]pyridin-3-yl]methanamine]
> 1000 nM	Cc1nc(Oc2cc(Cl)ccc2-c2ncc(CCN)cn2)c(C)c(N2CCOCC2)n1 [compound 1405, 2-[2-[4-chloro-2-(2,5-dimethyl-6-morpholin-4-ylpyrimidin-4-yl)oxyphenyl]pyrimidin-5-yl]ethanamine]
